Like-named read-outs stand apart in the source and are kept apart here.
Legend:
CCDC47 = tested on: CCDC47
Experimental: Human serum samples from individuals with type 2 diabetes mellitus (T2D) and/or cardiomyopathy treated with various drugs and appropriate control subjects (n=120 total) were acquired from a commercial source. The characteristics of the group was as follows:
The level of the cardiomyopathy protein biomarker CCDC47 were measured in the serum samples from the T2DM individuals and drug treated T2DM individuals using commercially available ELISA kits. The assays were performed using the manufactures' instructions. An ROC analysis was performed to determine if serum CCDC47 levels correlated with cardiomyopathy.

EDIL3 = test: Serum EDIL3 ELISA in normal, T2DM, Rosiglitazone-treated T2DM and cardiomyopathy individuals; type: in vivo, human; details: some Rosiglitazone-treated T2DM individuals vs. the other Rosiglitazone-treated T2DM individuals; FIG. 7
Experimental: (§1) The level of protein expression of cardiotoxicity biomarkers EDIL3 and NucB1 in the serum samples from these four groups of individuals were measured by using commercially available ELISA kits.
(§2) The expression levels of the cardiotoxicity biomarkers EDIL3 and NucB1 were determined and the average expression of each biomarker for each group of individuals was calculated.

NucB1 = test: Serum NucB1 ELISA in normal, T2DM, Rosiglitazone-treated T2DM and cardiomyopathy individuals; type: in vivo, human; details: some Rosiglitazone-treated T2DM individuals vs. the other Rosiglitazone-treated T2DM individuals; FIG. 8
Experimental: as §1, §2

serum lipids = test: Serum lipidomics of patients (diabetes / rosiglitazone / cardiomyopathy groups); type: in vivo, human
From the text: The platform methods provided herein enables integration of multi-omic signatures from human drug induced organ toxicity models. A substantive example of the platforms prowess that is under consideration here is a human drug induced cardio toxicity scenario. Human drug induced cardio toxicity models that comprises of i) Human cardiomyocyte based in vitro models of cardiotoxicity and ii) Serum samples from patients on a drug that induces cardiotoxicity. In vitro models include human cardio myocyte pretreated with fatty acids (linoleic, oleic acids and L-Carnitine) followed by treatment with a drug. The drug under consideration here is a thiazolidinedione. Cell based assays specifically measuring functional end points namely mitochondrial ATP, ROS, cell viability and mitochondrial bioenergetics were performed on in vitro models.
Proteomics was performed using the LTQ Orbitrap from Thermo Scientific as mentioned in earlier reports. Shortgun Lipidomics was performed using the TSQ vantage EMR triple Quad mass spec from thermo.
Standard procedures for merging, normalization and imputation were followed. Quality control plots for these steps are included in the accompanying folder.
Quantification of lipids that are common to serum lipid networks and pellet lipid networks. […] Lipid levels are expressed as a percent of normal lipid levels in FIG. 10B. […]

| level of CCDC47 in serum (CCDC47; human, in vivo) | level of CCDC47 in serum (CCDC47; subjects treated with the drug vs. subjects treated with the other two drugs (rosiglitazone, metformin, atorvastatin), ELISA, FIG. 13) | SMILES | EDIL3 expression level in serum (EDIL3) | NucB1 expression level in serum (NucB1) | serum level of lipid PE D18:0-20:3/D18:1-20:2/D16:0-22:3 (serum lipids; diabetic subjects on rosiglitazone with clinical diagnosis of cardiomyopathy vs. diabetic alone and diabetics on rosiglitazone without cardiomyopathy, FIG. 10) | serum ethanolamine glycerophospholipid species P16:0-20:4, D18:0-18:2, P16:0-22:6, P18:0-20:4 and D18:0-20:4 (serum lipids; diabetic vs. diabetic rosiglitazone no cardiomyopathy vs. diabetic rosiglitazone cardiomyopathy) |
| --- | --- | --- | --- | --- | --- | --- |
| No significant difference |  | CC(C)c1c(C(=O)Nc2ccccc2)c(-c2ccccc2)c(-c2ccc(F)cc2)n1CC[C@@H](O)C[C@@H](O)CC(=O)O [atorvastatin] |  |  |  |  |
| No significant difference |  | CN(C)C(=N)N=C(N)N [metformin] |  |  |  |  |
|  | significant increase | CN(CCOc1ccc(CC2SC(=O)NC2=O)cc1)c1ccccn1 (stereo not shown) [rosiglitazone] | decreased | decreased | significantly reduced | stratified along with the treatment with rosiglitazone |

Source: patent publication US10352947B2, “Use of markers in the identification of cardiotoxic agents and in the diagnosis and monitoring of cardiomyopathy and cardiovascular disease” (Berg LLC, priority 2012, dated 2019)
